Experimental data published in PubChem BioAssay AID248 (DTP/NCI, 2004).
Toxic doses and inconclusive results are not listed. No stated cut-off is given here; in the data, active means T/C of 150% or more; inactive means T/C below 125%.

Tested on: L1210 leukemia ip in BDF1 mice, survival T/C
Experiment: NCI In Vivo Anticancer Drug Screen. Data for tumor model L1210 Leukemia (intraperitoneal) in B6D2F1 (BDF1) mice
Details: endpoint: mean survival time, higher = longer survival
In short: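 Each compound was tested against a transplantable tumor grown in mice. The endpoint was survival, with treated animals benchmarked against vehicle controls as a simple ratio.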

[1] = dose: 100.0 mg/kg/injection, schedule: Q01DX001 (ip), vehicle: saline
[2] = dose: 200.0 mg/kg/injection, schedule: Q01DX001 (ip), vehicle: saline
[3] = dose: 400.0 mg/kg/injection, schedule: Q01DX001 (ip), vehicle: saline
[4] = dose: 100.0 mg/kg/injection, schedule: Q04DX002 (ip), vehicle: Klucel (hydroxypropylcellulose) (HPC)
[5] = dose: 200.0 mg/kg/injection, schedule: Q04DX002 (ip), vehicle: Klucel (hydroxypropylcellulose) (HPC)
[6] = dose: 400.0 mg/kg/injection, schedule: Q04DX002 (ip), vehicle: Klucel (hydroxypropylcellulose) (HPC)

Measured: T/C

COc1ccc(C=NC2C(O)OC(CO)C(O)C2O)cc1 (stereo not given)
inactive: [1] 106 % of control | [2] 87 % of control | [3] 93 % of control

Cn1nnn2c(-c3ccccc3)nnc12
inactive: dose: 100.0 mg/kg/injection, schedule: Q01DX009 (ip), vehicle: saline with Tween-80 97 % of control | dose: 100.0 mg/kg/injection, schedule: Q04DX003 (ip), vehicle: saline with Tween-80 105 % of control | dose: 200.0 mg/kg/injection, schedule: Q01DX009 (ip), vehicle: saline with Tween-80 105 % of control | dose: 200.0 mg/kg/injection, schedule: Q04DX003 (ip), vehicle: saline with Tween-80 97 % of control | dose: 400.0 mg/kg/injection, schedule: Q04DX003 (ip), vehicle: saline with Tween-80 100 % of control

CC(C)C[C@H](O)C(=O)O
inactive: dose: 33.0 mg/kg/injection, schedule: Q01DX009 (ip), vehicle: saline 98 % of control | dose: 50.0 mg/kg/injection, schedule: Q01DX009 (ip), vehicle: saline 98 % of control | dose: 75.0 mg/kg/injection, schedule: Q01DX009 (ip), vehicle: saline 98 % of control | dose: 100.0 mg/kg/injection, schedule: Q01DX009 (ip), vehicle: saline 97 % of control | dose: 100.0 mg/kg/injection, schedule: Q04DX003 (ip), vehicle: saline 98 % of control | dose: 200.0 mg/kg/injection, schedule: Q01DX009 (ip), vehicle: saline 101 % of control | dose: 200.0 mg/kg/injection, schedule: Q04DX003 (ip), vehicle: saline 100 % of control

CC1(C)CC(=O)C=C(OS(=O)(=O)C(F)(F)F)C1
inactive: dose: 12.5 mg/kg/injection, schedule: Q01DX009 (ip), vehicle: DMSO 110 % of control | dose: 25.0 mg/kg/injection, schedule: Q01DX009 (ip), vehicle: DMSO 101 % of control | dose: 50.0 mg/kg/injection, schedule: Q01DX009 (ip), vehicle: DMSO 103 % of control | dose: 100.0 mg/kg/injection, schedule: Q01DX009 (ip), vehicle: DMSO 94 % of control

C=CC(=O)NCCN(C)C
inactive: dose: 75.0 mg/kg/injection, schedule: Q01DX001 (ip), vehicle: saline 104 % of control | dose: 150.0 mg/kg/injection, schedule: Q01DX001 (ip), vehicle: saline 93 % of control | dose: 300.0 mg/kg/injection, schedule: Q01DX001 (ip), vehicle: saline 104 % of control

CC(C)C(CNC1=NCCN1)c1cccc2ccccc12 (stereo not given)
inactive: dose: 12.5 mg/kg/injection, schedule: Q04DX003 (ip), vehicle: saline with Tween-80 93 % of control | dose: 25.0 mg/kg/injection, schedule: Q04DX003 (ip), vehicle: saline with Tween-80 93 % of control | dose: 50.0 mg/kg/injection, schedule: Q04DX003 (ip), vehicle: saline with Tween-80 119 % of control

Cn1cccc1/C=N/O
inactive: [4] 98 % of control | [5] 98 % of control | [6] 117 % of control

COc1ccc(C2CCCCCC2OS(C)(=O)=O)c(OC)c1OC (stereo not given)
inactive: dose: 100.0 mg/kg/injection, schedule: Q01DX001 (ip), vehicle: carboxymethylcellulose (CMC) 108 % of control | dose: 200.0 mg/kg/injection, schedule: Q01DX001 (ip), vehicle: carboxymethylcellulose (CMC) 119 % of control

CCOC(=O)n1cnc2nc(N)nc(SC)c21
inactive: dose: 50.0 mg/kg/injection, schedule: Q01DX001 (ip), vehicle: saline 103 % of control | [1] 97 % of control | [2] 100 % of control | [3] 122 % of control

O=[N+]([O-])c1ccc(/C=N/N2CCN(/N=C/c3ccc([N+](=O)[O-])cc3)CC2)cc1
inactive: [1] 96 % of control | [2] 92 % of control | [3] 92 % of control

O=C1c2ccccc2C(=O)N1c1ccccc1O
inactive: [4] 98 % of control | [5] 102 % of control | [6] 106 % of control
